# According to PMC5729604, “Dual inhibitors of hepatitis C virus and hepatocellular carcinoma: design, synthesis and docking studies” (Future Science OA, 2017):
# Entries after “also recorded” stand apart in the source; their conditions may differ.
# How the values were obtained:
# [1] = system: human peripheral blood mononuclear cells (PBMCs); format: cell-based; settings: 72 h
# Experimental: The safe compounds on RBCs (5a-g, 5i-l, 5p-r, 5v-w, 6b-g) were subjected to the in vitro cytotoxicity assay on human peripheral blood mononuclear cells (PBMCs). Viability of cells was measured using neutral red uptake assay as described by Borenfreund and Puerner to determine the concentrations of each compound that were not cytotoxic. The results were interpreted to calculate both the lethal concentration that kills 50% of cells (LD50) and the maximum safe concentration that causes 100% viability (LD0) of each compound using GraphPad InStat 3.0 software (Figure 6 & Supplementary Table 3).
# The PBMCs were isolated by density gradient centrifugation technique as described by Boyum. Blood samples were freshly collected into heparinized or ethylenediaminetetraacetic acid sterile tubes. Blood was diluted using equal volume of RPMI-1640 medium containing 25 mM HEPES and then layered over equal volume of Ficoll-Pague™ Plus (Fisher BioReagents™ Lymphocyte Separation Medium-LSM, PA, USA) and centrifuged (2000 r.p.m. for 30 min at acceleration and deceleration speeds zero & zero) at room temperature. The buffy mononuclear cell layer was collected using sterile Pasteur pipette into 50 ml sterile Falcon tube and washed twice in phosphate-buffered saline (Sigma-Aldrich) using centrifugation (1650 r.p.m. for 5 min). The isolated PBMCs viability was determined by hemocytometer count using the trypan blue exclusion method. The PBMCs were resuspended at 1 × 10^6 cells/ml in RPMI-1640 medium containing 25 mM HEPES supplemented with 10% heat-inactivated FBS. The appropriate number of cells was chosen to be 1 × 10^5 cells/well (100 μl of the prepared suspension).
# A 2 mg/ml stock solution of each compound was prepared in DMF and filtered using a 0.2 μM syringe filter. The desired concentrations (20, 10, 5, 2.5 and 1.25 μg/ml) were prepared using serial dilution in a 96-well plate. Compound wells were prepared by adding 100 μl of the previously prepared concentrations to a suspension of 1 × 10^5 PBMCs in 100 μl culture media. Parallel concentrations of the solvent were prepared to be used as controls. Control wells were prepared by adding 100 μl culture media to a suspension of 1 × 10^5 PBMCs in 100 μl culture media. Blank wells contained 200 μl of culture media only (without cells or compound solution). Each set of samples was pipetted in duplicate. The plate was then gently shaken then incubated at 37°C, 5% CO2 for 72 h.
# After incubation, neutral red assay was performed as described previously, and surviving cell fraction was calculated according to the previously mentioned equation. Also, the results were interpreted to calculate both the lethal concentration that kills 50% of cells (LD50) and the maximum safe concentration that cause 100% viability (LD0) of each compound using GraphPad InStat 3.0 software.
# [2] = system: HepG2 cells infected with hepatitis C virus; assay: In vitro anti-HCV screening, qualitative RT-PCR of viral RNA; format: cell-based, HCV genotype-4; settings: for in vitro anti-HCV activity, in words: HCV-infected HepG2 cells, RT-PCR; for Result (anti-HCV screening): at the used dose (below LD0 on HepG2 and PBMCs), 72 h, Positive = disappearance of viral RNA-amplified product (174 bp)
# Text: The safe compounds on RBCs (5a-g, 5i-l, 5p-r, 5v-w, 6b-g) were screened for their in vitro anti-HCV activity using the HCC HepG2 cell line infected with the HCV. Monitoring of the HCV viremia pre- and post-antiviral therapy through the detection of viral RNA using qualitative reverse transcription-PCR (RT-PCR) was adopted in the present investigation. This technique was reported to be the most frequently used, reliable and sensitive technique. Inhibition of viral replication was detected by amplification of viral RNA segments by the RT-PCR technique both in the cultivated infected cells alone (as a positive control) and at the specified dose for each test compound at optimal temperature. The test compound was considered to be active when it can inhibit the viral replication inside the HCV-infected HepG2 cells, as evidenced by the disappearance of the viral RNA-amplified products detected by the RT-PCR (compared with positive control).
# The used concentration of each compound was chosen to be lower than the LD0 on HepG2 cells. Therefore, 100% viability of HepG2 cells was maintained, to make sure that any inhibitory effect was due to anti-HCV activity rather than cytotoxic activity on HepG2 cells. Moreover, the used concentrations were also chosen to be lower than the LD0 on PBMCs. Consequently, these doses could be used for inhibition of HCV in normal cells infected with the virus.
# HepG2 cells were washed twice in RPMI-1640 medium supplemented with 200 μM L-glutamine and […] HEPES buffer. The cells were suspended at 12 × 10^4 cells/ml in RPMI culture medium (RPMI supplemented medium and 10% FBS). The appropriate number of cells to be used was chosen to be 12 × 10^3 cells/well (100 μl of the prepared suspension), and the cells were left to adhere on the polystyrene […] plates in an incubator at 37°C, 5% CO2 and 95% humidity for 24 h. The cells were washed once using RPMI supplemented medium, then infected with 2% HCV-infected serum (the used serum was a pole of ten patients infected with HCV genotype-4 with viral loads: 3.2–9 million IU/ml, G4 HCV RNA) in RPMI culture medium containing 8% FBS. The used dose of each compound was chosen so as to maintain 100% viability of the HepG2 cell line (the dose was lower than the LD0 of each compound on HepG2 cells as calculated from the in vitro anticancer screening). It was reported that, cultured HepG2 cells lost their biotransformation activity due to decrease in cytochrome (CYP) transcription. This waived its effect on the compounds stability during the test. Negative control is HepG2 cells with culture medium without addition of HCV infected serum or addition of tested compounds. Positive control is HepG2 cells with culture medium and infected HCV serum but without addition of tested compounds. After addition of the compounds, the plates were incubated at 37°C, 5% CO2 and 95% humidity for 72 h, followed by RNA extraction. The RNA strand was detected by RT-PCR using HCV-specific primers to the […] region of the virus.
# RNA was extracted from HepG2 cells using the method described by El-Awady et al.. Culture cells were mixed with 200 μl of 4 mol/l guanidinium isothiocyanate (Fischer Bioreagents) containing 25 mmol/l sodium citrate (MP Biomedicals, CA, USA), 0.5% sarkosyl (Fischer Bioreagents), 0.1 mol/l β-mercaptoethanol (MP Biomedicals), and 100 μl sodium acetate (Merck). The lysed cells were mixed with an equal volume of phenol, chloroform and isoamyl alcohol (25:24:1, pH 4; Fischer Bioreagents). After vortexing, the mixture was centrifuged (14,000 r.p.m. for 10 min) at 4°C. The aqueous layer was collected and mixed with an equal volume of isopropanol (Acros Organics, Geel, Belgium). After incubation at -20°C overnight, RNA was precipitated by centrifugation (14,000 r.p.m. for 30 min) at 4°C, and the precipitated RNA was washed twice with 70% ethanol. […]
SMILES,(LD0) PBMCs [1] [µg/mL],LD0 [1] [µg/mL],LD50 [1] [µg/mL],"in vitro anti-HCV activity, in words [2]",Result (anti-HCV screening) [2],LD50 (PBMCs) [1] [µg/mL]
"CC(=NN=C1SC(=Cc2cn(-c3ccccc3)nc2-c2ccccc2)C(=O)N1c1ccccc1)c1cc2ccccc2o1 [Compound 5a, 2-[1-(Benzofuran-2-yl)ethylidenehydrazono]-5-[(1,3-Diphenyl-1H-pyrazol-4-yl)methylene]-3-phenylthiazolidin-4-one]",11.17,11.17,13.99,showed in vitro anti-HCV activity; also recorded: exhibited in vitro anti-HCV activity,Positive,
"CC(=NN=C1SC(=Cc2cn(-c3ccccc3)nc2-c2ccc(Cl)cc2)C(=O)N1c1ccccc1)c1cc2ccccc2o1 [Compound 5b, 2-[1-(Benzofuran-2-yl)ethylidenehydrazono]-5-{[3-(4-chlorophenyl)-1-phenyl-1H-pyrazol-4-yl]methylene}-3-phenylthiazolidin-4-one]",5.83,5.83,92.27,,Negative,
"COc1ccc(-c2nn(-c3ccccc3)cc2C=C2SC(=NN=C(C)c3cc4ccccc4o3)N(c3ccccc3)C2=O)cc1 [Compound 5c, 2-[1-(Benzofuran-2-yl)ethylidenehydrazono]-5-{[3-(4-methoxyphenyl)-1-phenyl-1H-pyrazol-4-yl]methylene}-3-phenylthiazolidin-4-one]",32.45,32.45,139.19,,Negative,
"CC(=NN=C1SC(=Cc2cn(-c3ccccc3)nc2-c2ccccc2)C(=O)N1c1ccc(Cl)cc1)c1cc2ccccc2o1 [Compound 5d, 2-[1-(Benzofuran-2-yl)ethylidenehydrazono]-5-[(1,3-Diphenyl-1H-pyrazol-4-yl)methylene]-3-(4-chlorophenyl)thiazolidin-4-one]",11.43,11.43,160.43,,Negative,
"CC(=NN=C1SC(=Cc2cn(-c3ccccc3)nc2-c2ccc(Cl)cc2)C(=O)N1c1ccc(Cl)cc1)c1cc2ccccc2o1 [Compound 5e, 2-[1-(Benzofuran-2-yl)ethylidenehydrazono]-5-{[3-(4-chlorophenyl)-1-phenyl-1H-pyrazol-4-yl]methylene}-3-(4-chlorophenyl)thiazolidin-4-one]",4.26,4.26,117.12,,Negative,
"COc1ccc(-c2nn(-c3ccccc3)cc2C=C2SC(=NN=C(C)c3cc4ccccc4o3)N(c3ccc(Cl)cc3)C2=O)cc1 [Compound 5f, 2-[1-(Benzofuran-2-yl)ethylidenehydrazono]-5-{[3-(4-methoxyphenyl)-1-phenyl-1H-pyrazol-4-yl]methylene}-3-(4-chlorophenyl)thiazolidin-4-one]",5.83,5.83,259.71,,Negative,259.71
"COc1ccc(N2C(=O)C(=Cc3cn(-c4ccccc4)nc3-c3ccccc3)SC2=NN=C(C)c2cc3ccccc3o2)cc1 [Compound 5g, 2-[1-(Benzofuran-2-yl)ethylidenehydrazono]-5-[(1,3-Diphenyl-1H-pyrazol-4-yl)methylene]-3-(4-methoxyphenyl)thiazolidin-4-one]",8.88,8.88,39.01,,Negative,
"COc1ccc(-c2nn(-c3ccccc3)cc2C=C2SC(=NN=C(C)c3cc4ccccc4o3)N(c3ccc(OC)cc3)C2=O)cc1 [Compound 5i, 2-[1-(Benzofuran-2-yl)ethylidenehydrazono]-5-{[3-(4-methoxyphenyl)-1-phenyl-1H-pyrazol-4-yl]methylene}-3-(4-methoxyphenyl)thiazolidin-4-one]",7.60,7.60,25.35,,Negative,
"CC(=NN=C1SC(=Cc2cn(-c3ccccc3)nc2-c2ccccc2)C(=O)N1C1CCCCC1)c1cc2ccccc2o1 [Compound 5j, 2-[1-(Benzofuran-2-yl)ethylidenehydrazono]-5-[(1,3-Diphenyl-1H-pyrazol-4-yl)methylene]-3-cyclohexylthiazolidin-4-one]",9.90,9.90,134.00,,Negative,134.00
"CC(=NN=C1SC(=Cc2cn(-c3ccccc3)nc2-c2ccc(Cl)cc2)C(=O)N1C1CCCCC1)c1cc2ccccc2o1 [Compound 5k, 2-[1-(Benzofuran-2-yl)ethylidenehydrazono]-5-{[3-(4-chlorophenyl)-1-phenyl-1H-pyrazol-4-yl]methylene}-3-cyclohexylthiazolidin-4-one]",33.29,33.29,319.64,,Negative,
"COc1ccc(-c2nn(-c3ccccc3)cc2C=C2SC(=NN=C(C)c3cc4ccccc4o3)N(C3CCCCC3)C2=O)cc1 [Compound 5l, 2-[1-(Benzofuran-2-yl)ethylidenehydrazono]-5-{[3-(4-methoxyphenyl)-1-phenyl-1H-pyrazol-4-yl]methylene}-3-cyclohexylthiazolidin-4-one]",8.33,8.33,46.89,showed in vitro anti-HCV activity; also recorded: exhibited in vitro anti-HCV activity,Positive,46.89
